Data reported in PMC5021990 (Biochemical and biophysical research communications, 2016).

Columns and labels:
FnLpxA = FnLpxA (Francisella tularensis, UniProt A0Q7Y0); conditions: 20 μM R,S-3-hydroxypalmitoyl-ACP, 100 μM [α-32P]UDP-GlcNAc, 40 mM HEPES pH 7.4, 100 mM NaCl, 30 °C; labelled compound
[1] = target: Francisella novicida LpxA (UDP-N-acetylglucosamine acyltransferase), C-terminally His6-tagged (Francisella novicida); experiment: SEC

## CC(=O)N[C@H]1[C@@H](OP(=O)(O)OP(=O)(O)OC[C@H]2O[C@@H](n3ccc(=O)[nH]c3=O)[C@H](O)[C@@H]2O)O[C@H](CO)[C@@H](O)[C@@H]1O [UDP-GlcNAc]
FnLpxA
  TLC radioassay of acyl transfer, PhosphorImager: purified FnLpxA transfers a 3-hydroxypalmitoyl group from 3-hydroxypalmitoyl-ACP to the 3-OH of UDP-GlcNAc

## Francisella novicida LpxA (UDP-N-acetylglucosamine acyltransferase), C-terminally His6-tagged (enzyme)
[1]
  stoichiometry N: 3
